According to patent US4379158A, “Antisecretory imidazole amidine compounds, composition and method of use” (Yamanouchi Pharmaceutical Co., Ltd., priority 1977, dated 1983):
Counter-ions that a name gives are not always drawn.

Key:
Histamine H2-receptor = molecular target: T1, Histamine H2-receptor (Cavia porcellus, UniProt P47747); assay: Histamine H2-receptor blocking activity of test compounds in isolated guinea-pig atria (histamine-induced tachycardia); assay type: cell-based, guinea-pigs; conditions: 5×10^-6 M histamine, Krebs-Henseleit solution, 36° C., mean ± S.E. from 5 experiments, read-out: ED50 (dose producing a 50% blockade of chronotropic action of histamine)
T1 construct: Atrial preparations isolated from guinea-pigs; from tissue; host or cells: isolated guinea-pig atria
T1 sequence (P47747 whole entry): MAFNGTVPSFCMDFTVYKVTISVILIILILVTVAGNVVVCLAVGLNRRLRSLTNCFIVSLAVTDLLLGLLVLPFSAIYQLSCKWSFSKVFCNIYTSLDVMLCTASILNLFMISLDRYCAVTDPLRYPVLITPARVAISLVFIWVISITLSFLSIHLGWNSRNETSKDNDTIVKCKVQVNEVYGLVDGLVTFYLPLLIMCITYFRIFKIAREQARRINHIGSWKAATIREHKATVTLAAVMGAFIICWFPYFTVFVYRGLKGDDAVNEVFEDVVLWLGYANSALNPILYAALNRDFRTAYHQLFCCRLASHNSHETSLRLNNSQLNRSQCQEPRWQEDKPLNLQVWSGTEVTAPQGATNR
Method: Atrial preparations isolated from guinea-pigs were suspended in Krebs-Henseleit solution at 36° C. (Mitchell, I. et al. Europ. J. Pharmacol., 34, 95, 1975). The dose producing a 50% blockade of chronotropic action of 5×10^-6 M histamine was obtained from the dose-respose curve in which the inhibition percentage was plotted semilogarithmically against dose.

gastric acid secretion = assay: Effect of test compounds on gastric acid secretion in pylorus-ligated rats; assay type: in vivo; conditions: 50 mg/kg intraduodenal, immediately after pylorus ligation, 7 rats, mean ± S.E., *p < 0.01; for Gastric contents, Volume: control 3.2 ± 0.3; for Gastric contents, Acid output: control 380 ± 40.1
Method: Rats weighing about 200 g. were deprived of food for 24 hours and their pylorus was ligated after an abdominal incision under ether anesthesia (Shay, H. et al.: Gastroenterol., 5, 43, 1945). Test compounds were intraduodenally given immediately after the pylorus ligation. The animals were sacrificed 4 hours after drug administration and gastric contents were collected. The gastric juice was titrated with 0.05 N NaOH to pH 7.0 for measurement of acidity.

H2-receptor = conditions: Ash and Schild 1966; Black et al. 1972; cited from earlier work

SMILES	IC50 (Histamine H2-receptor) [nM]	Gastric contents, Volume (gastric acid secretion) [ml/4 hours/rat]	Gastric contents, Acid output (gastric acid secretion) [μEq/4 hours/rat]	inhibition/antagonism of the effects of histamine on gastric acid secretion and heart rate in isolated atrium (in words) (H2-receptor)
C#CCN=C(N)CCSCc1nc[nH]c1C [Example 40, N2-Propynyl-3-[(5-methylimidazol-4-yl)methylthio]-propionamidine dihydrochloride]	2300	–	–	–
CN(C)Cc1ccc(CSCCC(N)=NC#N)o1 [Example 41, NCyano-3-[5-(dimethylaminomethyl)furfurylthio]-propionamidine]	2100	1.5 ± 0.2	97 ± 17.2	–
C#CCN=C(N)CCSCc1ccc(CN(C)C)o1 [Example 42, 3-[5-(Dimethylaminomethyl)furfurylthio]-N2-propynylpropionamidine dihydrochloride]	–	1.7 ± 0.3	137 ± 31.5	–
Cc1[nH]cnc1CSCCC(N)=NC(N)=O [Example 44, N-carbamoyl-3-(4-methyl-5-imidazolylmethylthio)-propionamidine]	900	1.4 ± 0.2	79 ± 9.0	–
COc1ccc(CN(CCN(C)C)c2ccccn2)cc1 [mepyramine]	–	–	–	not inhibited
C/N=C(\S)NCCSCc1[nH]cnc1C [metiamide]	–	–	–	antagonized
